Results taken from ChEMBL document CHEMBL1821670, “Synthesis and in vitro biological evaluation of carbonyl group-containing analogues for σ1 receptors” (J Med Chem, 2011).

Key:
[1] = Displacement of [3H]-DTG from sigma 2 receptor in rat liver membrane homogenates after 2 hrs by liquid scintillation counting; type: cell membranes
[2] = target: Sigma non-opioid intracellular receptor 1 (Cavia porcellus, UniProt Q60492); assay: Displacement of (+)-[3H]pentazocine from sigma 1 receptor in guinea pig brain membrane homogenates after 90 mins by liquid scintillation counting; type: cell membranes
[3] = target: T1, Vesicular acetylcholine transporter (Homo sapiens, UniProt Q16572); assay: Displacement of (-)-[3H]vesamicol from human VAChT expressed in rat PC12 A123.7 cells after 20 hrs; type: cell-based, PC-12
T1 sequence (Q16572 whole entry): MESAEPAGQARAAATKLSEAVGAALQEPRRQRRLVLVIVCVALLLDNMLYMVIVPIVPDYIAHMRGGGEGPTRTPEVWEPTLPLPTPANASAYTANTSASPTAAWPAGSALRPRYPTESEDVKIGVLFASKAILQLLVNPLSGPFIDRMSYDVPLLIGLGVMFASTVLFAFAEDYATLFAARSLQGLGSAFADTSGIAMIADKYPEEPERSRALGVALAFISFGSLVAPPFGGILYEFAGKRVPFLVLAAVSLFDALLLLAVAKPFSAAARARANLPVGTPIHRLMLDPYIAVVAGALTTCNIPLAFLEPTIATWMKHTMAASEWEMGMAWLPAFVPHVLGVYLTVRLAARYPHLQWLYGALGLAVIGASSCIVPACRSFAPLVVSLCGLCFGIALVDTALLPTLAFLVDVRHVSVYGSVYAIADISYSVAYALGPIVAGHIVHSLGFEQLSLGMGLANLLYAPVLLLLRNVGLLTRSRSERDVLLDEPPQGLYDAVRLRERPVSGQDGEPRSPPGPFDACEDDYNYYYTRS

[4] = Selectivity ratio of Ki for sigma 1 receptor in guinea pig brain membrane homogenates to Ki for human VAChT; type: cell membranes
[5] = Selectivity ratio of Ki for sigma 1 receptor in guinea pig brain membrane homogenates to Ki for sigma 2 receptor in rat liver membrane homogenates; type: cell membranes

Sigma non-opioid intracellular receptor 1, sequence (Q60492 whole entry): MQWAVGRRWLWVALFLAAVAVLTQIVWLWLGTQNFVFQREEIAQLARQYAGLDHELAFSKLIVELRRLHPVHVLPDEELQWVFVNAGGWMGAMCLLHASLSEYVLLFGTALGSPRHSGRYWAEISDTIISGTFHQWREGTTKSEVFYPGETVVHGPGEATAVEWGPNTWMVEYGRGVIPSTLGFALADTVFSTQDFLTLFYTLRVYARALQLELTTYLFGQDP

Row | Ki [1] [nM] | Ki [3] [nM] | Ratio Ki [4] | Ratio Ki [5] | SMILES | Ki [2] [nM]
1 | 35.9 |  |  |  | O[C@@H]1CCN(Cc2ccc(F)cc2)C[C@H]1N1CCC(c2ccccc2)CC1 | 
2 | 42.4 | 22.9 |  |  | Cc1ccc(C2CCN([C@@H]3CCCC[C@H]3O)CC2)cc1 | 8.1
3 | 242 |  |  |  | COc1ccc(CCN2CCN(CCCc3ccccc3)CC2)cc1OC | 
4 | 8640 |  | 1.1 | 2.7 | O=C(c1ccc(F)cc1)C1CCN([C@H]2CCN(C(=O)c3ccc(F)cc3)C[C@@H]2O)CC1 (relative stereo) | 
5 | 13000 |  | 0.2 | 11 | O=C(c1ccc(F)cc1)C1CCN([C@H]2CN(Cc3cccnc3)CC[C@@H]2O)CC1 (relative stereo) | 
6 | 8540 |  | 0.17 | 41 | COc1ccc(C(=O)C2CCN([C@H]3CN(Cc4ccccc4)CC[C@@H]3O)CC2)cc1 (relative stereo) | 
7 | 17100 |  |  |  | COc1ccc(C(=O)C2CCN([C@H]3CN(Cc4cccnc4)CC[C@@H]3O)CC2)cc1 (relative stereo) | 

Row | SMILES | Ki [1] [nM] | Ki [3] [nM] | Ratio Ki [4] | Ratio Ki [5] | Ki [2] [nM]
8 | O[C@@H]1CCN(Cc2cccc(I)c2)C[C@H]1N1CCC(c2ccccc2)CC1 | 190 |  |  |  | 92
9 | O[C@@H]1CCCC[C@H]1N1CCC(c2ccccc2)CC1 [VESAMICOL] | 346 |  |  |  | 73.8
